# Reference: patent US7919680B2, “Nucleic acids encoding anthelmintic agents and plants made therefrom” (Divergence, Inc., priority 2004, dated 2011)
# Key:
# [1] = tested on: C. elegans dauers; assay: Nematicidal activity of methyl ester, salt and free fatty acid emulsions vs. C. elegans dauers (Table 4); type: in vivo, Caenorhabditis elegans
# [2] = tested on: M. javanica; assay: Nematicidal activity of fatty acid methyl ester emulsions against root knot nematode J2 larvae (Table 5); type: in vivo; conditions: 0.1% emulsion; 48 hours incubation, counted about 24 hours after transfer to plates
# Experimental: (§1) M. incognita and M. javanica were prepared from tomato roots. The roots were bleached and the debris was separated from the J2 larvae and eggs by filtration followed by sucrose density gradient centrifugation. Eggs were hatched over 4 days at 15° C. and the J2 larvae were collected by passage though a filter, followed by centrifugation.
# (§2) Nematodes and emulsions were incubated with shaking at room temperature for 48 hours. The contents of each well were transferred to a small spot on individual NGM plates lacking bacteria. About 24 hours after the transfer to plates, worms on and off the inoculation spot were counted as not viable or viable, respectively. Worms were considered viable if they had crawled away from the inoculation spot, or if they were moving. Worms were considered non-viable if they remained at the inoculation spot.
# [3] = tested on: M. incognita; assay: as above; type: in vivo; conditions: 0.1% emulsion; 48 hours incubation, counted about 24 hours after transfer to plates
# Experimental: as §1, §2
# [4] = tested on: P. trichosuri; assay: Nematicidal activity of fatty acid methyl ester emulsions, nematode spectrum (Table 6); type: in vivo, Parastrongyloides trichosuri; conditions: P. trichosuri infective 3rd stage larva
# Experimental: (§3) Briefly, the indicated fatty acid emulsions were added to nematodes in wells of a 24-well plate and rapidly mixed by swirling. […] Results shown are mean % values obtained from multiple independent experiments
# (§4) The Caenorhabditis elegans were mixed stage populations. Similar effects were seen on several other free-living nematode species. The Parastrongyloides trichosuri (parasite of Australian bushtail possum) were dauer-like infective 3rd stage larva. Similar effects are also seen against free-living stages. The Meloidogyne incognita and Meloidogyne javanica (root knot nematode) were 2nd stage juveniles (dauer-like infective stage). The Heterodera glycines (soybean cyst nematode) were 2nd stage juveniles (dauer-like infective stage). Finally, the Pratylenchus scribneri (corn lesion nematode) were mixed stage populations.
# [5] = tested on: C. elegans; assay: as above; type: in vivo, Caenorhabditis elegans; conditions: C. elegans mixed stage
# Experimental: as §3, §4
# [6] = tested on: wide spectrum of divergent nematode genera; assay: Summary of Table 6: free-living, animal parasitic and plant parasitic nematodes; type: in vivo; conditions: concentrations of 0.1% and 0.01%
# Experimental: as §3
# [7] = tested on: H. glycines; assay: Nematicidal activity of fatty acid methyl ester emulsions, nematode spectrum (Table 6); type: in vivo, Heterodera glycines; conditions: H. glycines 2nd stage juveniles, head 24 hr, b171 48 hours
# Experimental: as §3, §4
# [8] = tested on: tomato seedlings; assay: Phytotoxicity evaluation of fatty acid methyl esters on tomato seedlings; type: in vivo; conditions: 250 μl of 1% emulsion at stem-media interface of two-week seedlings
# Experimental: Sterilized tomato seeds were germinated in magenta jars containing Gamborg's agar media. After two weeks of growth, seedlings were treated with 250 μl of 1% fatty acid methyl ester emulsion (nonanoic acid, ricinoleic acid, ricinelaidic acid, oleic acid, or a control emulsion lacking any fatty acid), applied directly to the stem-media interface. Tomato seedlings were scored at various times after application of emulsions.
# [9] = tested on: M. javanica; assay: Nematicidal activity of fatty acid methyl ester emulsions, nematode spectrum (Table 6); type: in vivo, Meloidogyne javanica; conditions: M. javanica 2nd stage juveniles, head 24 hr, b171 48 hours
# Experimental: as §3, §4
# [10] = tested on: everted hamster jejunal and ileal segments; conditions: Gaginella et al. (1975); cited from earlier work
# [11] = tested on: P. scribneri; assay: Nematicidal activity of fatty acid methyl ester emulsions, nematode spectrum (Table 6); type: in vivo, Pratylenchus scribneri; conditions: P. scribneri mixed stage
# Experimental: as §3, §4
# [12] = tested on: C. elegans; assay: Nematicidal activity of methyl ester, salt and free fatty acid emulsions vs. C. elegans N2s (Table 3); type: in vivo, Caenorhabditis elegans
# Description: Nematicidal Activity of Single Fatty Acid Methyl Ester, Salt and Free Fatty Acid Emulsions Against Caenorhabditis elegans […] and Dauers
# [13] = tested on: C. elegans; assay: Nematicidal activity of fatty acid methyl ester emulsions against C. elegans (Table 2)
# [14] = tested on: M. incognita; assay: Nematicidal activity of fatty acid methyl ester emulsions, nematode spectrum (Table 6); type: in vivo, Meloidogyne incognita; conditions: M. incognita 2nd stage juveniles, head 24 hr, b171 48 hours
# Experimental: as §3, §4
# [15] = tested on: L4 and adult C. elegans; conditions: Stadler and coworkers; cited from earlier work
# [16] = tested on: Caenorhabditis elegans; conditions: 100 μg/mL over 24 hours; Momin & Nair (2002); cited from earlier work
# [17] = tested on: Panagrellus redivivus; conditions: 100 μg/mL over 24 hours; Momin & Nair (2002); cited from earlier work
# [18] = tested on: isolated intestinal epithelial cells; conditions: Gaginella et al. (1977); cited from earlier work
compound,measurement,setting,value
"CCCCCC[C@@H](O)C/C=C\CCCCCCCC(=O)OC [Ricinoleic Acid (C18-methyl ester), ricinoleic acid methyl ester]",worm death,[1]; 0.01% emulsion,30%
same,worm death,[1]; 0.1% emulsion,70%
same,M. javanica (% not viable),[2],60%
same,M. incognita (% not viable),[3],95%
same,% Worm Death (24 hr),[4]; 0.01% solution,~60%
same,% Worm Death (24 hr),[4]; 0.1% solution,~50%
same,% Worm Death (24 hr),[5]; 0.001% solution,30%
same,% Worm Death (24 hr),[5]; 0.01% solution,50%
same,% Worm Death (24 hr),[5]; 0.1% solution,90%
same,nematicidal activity,[6],strongly nematicidal
same,% Worm Death (24 hr),[7]; 0.001% solution,~40%
same,% Worm Death (24 hr),[7]; 0.01% solution,~60%
same,% Worm Death (24 hr),[7]; 0.1% solution,~60%
same,phytotoxic effects on tomato seedlings,[8],low phytotoxicity
same,% Worm Death (24 hr),[9]; 0.01% solution,5%
same,% Worm Death (24 hr),[9]; 0.1% solution,60%
same,effect on water and electrolyte absorption,[10],ineffective
same,% Worm Death (24 hr),[11]; 0.01% solution,<20%
same,% Worm Death (24 hr),[11]; 0.1% solution,<20%
same,worm death,[12]; 0.001% emulsion,20%
same,worm death,[12]; 0.01% emulsion,40%
same,worm death,[12]; 0.1% emulsion,90%
same,Percentage of Worm Death 1 hr,[13]; 0.003% emulsion,40%
same,Percentage of Worm Death 6 hr,[13]; 0.003% emulsion,40%
same,Percentage of Worm Death 24 hr,[13]; 0.003% emulsion,40%
same,Percentage of Worm Death 1 hr,[13]; 0.1% emulsion,80%
same,Percentage of Worm Death 6 hr,[13]; 0.1% emulsion,80%
same,Percentage of Worm Death 24 hr,[13]; 0.1% emulsion,90%
same,nematicidal activity,[13]; concentration of 0.1%,strongly nematicidal
same,time before strong killing effects are apparent,"[13]; emulsion, Table 2",up to 30 minutes
same,% Worm Death (24 hr),[14]; 0.01% solution,83%
same,% Worm Death (24 hr),[14]; 0.1% solution,95%
CCCCCCCC/C=C\CCCCCCCC(=O)O [oleic acid],LD50,[15],25 µg/mL
same,LD90,[15],100 µg/mL
same,nematicidal activity,[16],not nematicidal
same,nematicidal activity,[17],not nematicidal
"CCCCCC[C@@H](O)C/C=C\CCCCCCCC(=O)O [R free acid, ricinoleic acid]",worm death,[1]; 0.01% emulsion,75%
same,worm death,[1]; 0.1% emulsion,90%
same,effect on water and electrolyte absorption,[10],inhibitory effect
same,worm death,[12]; 0.001% emulsion,<5%
same,worm death,[12]; 0.01% emulsion,50%
same,worm death,[12]; 0.1% emulsion,95%
same,cytotoxicity,[18],cytotoxic
